Reference: ChEMBL document CHEMBL4673234, “Design, synthesis, biological evaluation and molecular docking of new uracil analogs-1,2,4-oxadiazole hybrids as potential anticancer agents” (Bioorg Med Chem Lett, 2020)

How the values were obtained:
A549 [1] = assay: Induction of apoptosis in human A549 cells assessed as early apoptotic cells at 5 uM incubated for 24 hrs by AnnexinV-FITC/7-AAD double staining based analysis relative to control; type: functional
A549 [2] = assay: Induction of apoptosis in human A549 cells assessed as viable cells at 5 uM incubated for 24 hrs by AnnexinV-FITC/7-AAD double staining based analysis (reference value: 89.88 %); type: functional; conditions: read-out: Activity
HT-1080 [3] = assay: Induction of mitochondrial membrane potential dysfunction in human HT-1080 cells assessed as depolarized dead cells at 5 uM incubated for 24 hrs by flow cytometry analysis (reference value: 0.0 %); type: functional
HT-1080 [4] = assay: Induction of cell cycle arrest in human HT-1080 cells assessed as G2/M phase at 5 uM incubated for 24 hrs by flow cytometry analysis (reference value: 25.6 %); type: functional
MCF7 = assay: Cytotoxicity against human MCF7 cells assessed as reduction in cell viability incubated for 48 hrs; type: functional, cell-based; conditions: MCF7, 48 h
A549 [5] = assay: Induction of cell cycle arrest in human A549 cells assessed as G0/G1 phase at 5 uM incubated for 24 hrs by flow cytometry analysis (reference value: 73.5 %); type: functional
A549 [6] = assay: Cytotoxicity against human A549 cells assessed as reduction in cell viability incubated for 48 hrs; type: functional, cell-based; conditions: A549, 48 h
A549 [7] = assay: Induction of apoptosis in human A549 cells assessed as necrotic cells at 5 uM incubated for 24 hrs by AnnexinV-FITC/7-AAD double staining based analysis (reference value: 1.04 %); type: functional
A549 [8] = assay: Induction of apoptosis in human A549 cells assessed as early apoptotic cells at 5 uM incubated for 24 hrs by AnnexinV-FITC/7-AAD double staining based analysis (reference value: 6.07 %); type: functional
A549 [9] = assay: Induction of apoptosis in human A549 cells assessed as late apoptotic cells at 5 uM incubated for 24 hrs by AnnexinV-FITC/7-AAD double staining based analysis (reference value: 3.01 %); type: functional
HT-1080 [10] = assay: Induction of apoptosis in human HT-1080 cells at 5 uM incubated for 24 hrs by AnnexinV-FITC/7-AAD double staining based analysis relative to control; type: functional
[11] = target: T1, Caspase-3/Caspase-7 (Homo sapiens) (UniProt P42574+P55210); assay: Induction of caspase 3/7 proteolytic activity in human A549 cells assessed as induction of apoptosis by measuring apoptotic cells at 5 uM incubated for 24 hrs by flow cytometry analysis (reference value: 2.54 %); type: cell-based
HT-1080 [12] = assay: Induction of cell cycle arrest in human HT-1080 cells assessed as S phase at 5 uM incubated for 24 hrs by flow cytometry analysis (reference value: 10.3 %); type: functional
A549 [13] = assay: Induction of apoptosis in human A549 cells at 5 uM incubated for 24 hrs by AnnexinV-FITC/7-AAD double staining based analysis (reference value: 9.08%); type: functional
[14] = Induction of caspase 3/7 proteolytic activity in human A549 cells assessed as induction of apoptosis at 5 uM incubated for 24 hrs by flow cytometry analysis relative to control; type: functional
A549 [15] = assay: Induction of mitochondrial membrane potential dysfunction in human A549 cells assessed as dead cells at 5 uM incubated for 24 hrs by flow cytometry analysis (reference value: 9.92 %); type: functional
HT-1080 [16] = assay: Induction of apoptosis in human HT-1080 cells assessed as early apoptotic cells at 5 uM incubated for 24 hrs by AnnexinV-FITC/7-AAD double staining based analysis relative to control; type: functional
[17] = target: T1, Caspase-3/Caspase-7 (Homo sapiens); assay: Induction of caspase 3/7 proteolytic activity in human HT-1080 cells assessed as induction of apoptosis by measuring apoptotic/dead cells at 5 uM incubated for 24 hrs by flow cytometry analysis (reference value: 4.97 %); type: cell-based
A-375 [18] = assay: Cytotoxicity against human A-375 cells assessed as cell viability at 5 uM incubated for 48 hrs (reference value: 100 %); type: functional; conditions: read-out: Activity
[19] = target: T1, Caspase-3/Caspase-7 (Homo sapiens); assay: Induction of caspase 3/7 proteolytic activity in human HT-1080 cells assessed as induction of apoptosis by measuring apoptotic cells at 5 uM incubated for 24 hrs by flow cytometry analysis (reference value: 1.48 %); type: cell-based
HT-1080 [20] = assay: Induction of apoptosis in human HT-1080 cells assessed as early apoptotic cells at 5 uM incubated for 24 hrs by AnnexinV-FITC/7-AAD double staining based analysis (reference value: 1.22 %); type: functional
A549 [21] = assay: Induction of apoptosis in human A549 cells at 5 uM incubated for 24 hrs by AnnexinV-FITC/7-AAD double staining based analysis relative to control; type: functional
MDA-MB-231 = assay: Cytotoxicity against human MDA-MB-231 cells assessed as reduction in cell viability incubated for 48 hrs; type: functional, cell-based; conditions: MDA-MB-231, 48 h
[22] = target: T1, Caspase-3/Caspase-7 (Homo sapiens); assay: Induction of caspase 3/7 proteolytic activity in human HT-1080 cells assessed as induction of apoptosis by measuring viable cells at 5 uM incubated for 24 hrs by flow cytometry analysis (reference value: 91.39 %); type: cell-based; conditions: filed as activator
[23] = target: T1, Caspase-3/Caspase-7 (Homo sapiens); assay: Induction of caspase 3/7 proteolytic activity in human A549 cells assessed as induction of apoptosis by measuring dead cells at 5 uM incubated for 24 hrs by flow cytometry analysis (reference value: 2.90 %); type: cell-based
A549 [24] = assay: Induction of mitochondrial membrane potential dysfunction in human A549 cells assessed as viable cells at 5 uM incubated for 24 hrs by flow cytometry analysis (reference value: 86.64 to 88.54 %); type: functional; conditions: read-out: Activity
HT-1080 [25] = assay: Induction of apoptosis in human HT-1080 cells assessed as necrotic cells at 5 uM incubated for 24 hrs by AnnexinV-FITC/7-AAD double staining based analysis (reference value: 0.73 %); type: functional
HT-1080 [26] = assay: Induction of apoptosis in human HT-1080 cells assessed as late apoptotic cells at 5 uM incubated for 24 hrs by AnnexinV-FITC/7-AAD double staining based analysis (reference value: 0.12 %); type: functional
HT-1080 [27] = assay: Cytotoxicity against human HT-1080 cells assessed as reduction in cell viability incubated for 48 hrs; type: functional, cell-based; conditions: HT-1080, 48 h
HT-1080 [28] = assay: Induction of mitochondrial membrane potential dysfunction in human HT-1080 cells assessed as viable cells at 5 uM incubated for 24 hrs by flow cytometry analysis (reference value: 90.10 %); type: functional; conditions: read-out: Activity
[29] = Induction of caspase 3/7 proteolytic activity in human HT-1080 cells assessed as induction of apoptosis at 5 uM incubated for 24 hrs by flow cytometry analysis relative to control; type: functional
HT-1080 [30] = assay: Induction of mitochondrial membrane potential dysfunction in human HT-1080 cells assessed as dead cells at 5 uM incubated for 24 hrs by flow cytometry analysis (reference value: 7.61 %); type: functional
A549 [31] = assay: Induction of cell cycle arrest in human A549 cells assessed as G2/M phase at 5 uM incubated for 24 hrs by flow cytometry analysis (reference value: 11.6 %); type: functional
HT-1080 [32] = assay: Induction of apoptosis in human HT-1080 cells assessed as viable cells at 5 uM incubated for 24 hrs by AnnexinV-FITC/7-AAD double staining based analysis (reference value: 97.92 %); type: functional; conditions: read-out: Activity
A-375 [33] = assay: Cytotoxicity against human A-375 cells assessed as cell viability at 10 uM incubated for 48 hrs (reference value: 100 %); type: functional; conditions: read-out: Activity
A549 [34] = assay: Induction of mitochondrial membrane potential dysfunction in human A549 cells assessed as depolarized dead cells at 5 uM incubated for 24 hrs by flow cytometry analysis (reference value: 0.39 %); type: functional
HT-1080 [35] = assay: Induction of cell cycle arrest in human HT-1080 cells assessed as G0/G1 phase at 5 uM incubated for 24 hrs by flow cytometry analysis (reference value: 63 %); type: functional
A549 [36] = assay: Induction of mitochondrial membrane potential dysfunction in human A549 cells assessed as depolarized live cells at 5 uM incubated for 24 hrs by flow cytometry analysis (reference value: 1.16 %); type: functional
[37] = target: T1, Caspase-3/Caspase-7 (Homo sapiens); assay: Induction of caspase 3/7 proteolytic activity in human A549 cells assessed as induction of apoptosis by measuring apoptotic/dead cells at 5 uM incubated for 24 hrs by flow cytometry analysis (reference value: 5.65 %); type: cell-based
HT-1080 [38] = assay: Induction of apoptosis in human HT-1080 cells at 5 uM incubated for 24 hrs by AnnexinV-FITC/7-AAD double staining based analysis (reference value: 1.34%); type: functional
A549 [39] = assay: Induction of cell cycle arrest in human A549 cells assessed as S phase at 5 uM incubated for 24 hrs by flow cytometry analysis (reference value: 9.6 %); type: functional
HT-1080 [40] = assay: Induction of mitochondrial membrane potential dysfunction in human HT-1080 cells assessed as depolarized live cells at 5 uM incubated for 24 hrs by flow cytometry analysis (reference value: 2.28 %); type: functional
[41] = target: T1, Caspase-3/Caspase-7 (Homo sapiens); assay: Induction of caspase 3/7 proteolytic activity in human HT-1080 cells assessed as induction of apoptosis by measuring dead cells at 5 uM incubated for 24 hrs by flow cytometry analysis (reference value: 2.15 %); type: cell-based
[42] = target: T1, Caspase-3/Caspase-7 (Homo sapiens); assay: Induction of caspase 3/7 proteolytic activity in human A549 cells assessed as induction of apoptosis by measuring viable cells at 5 uM incubated for 24 hrs by flow cytometry analysis (reference value: 88.91 %); type: cell-based; conditions: filed as activator

T1 sequence (P42574 whole entry, looked up): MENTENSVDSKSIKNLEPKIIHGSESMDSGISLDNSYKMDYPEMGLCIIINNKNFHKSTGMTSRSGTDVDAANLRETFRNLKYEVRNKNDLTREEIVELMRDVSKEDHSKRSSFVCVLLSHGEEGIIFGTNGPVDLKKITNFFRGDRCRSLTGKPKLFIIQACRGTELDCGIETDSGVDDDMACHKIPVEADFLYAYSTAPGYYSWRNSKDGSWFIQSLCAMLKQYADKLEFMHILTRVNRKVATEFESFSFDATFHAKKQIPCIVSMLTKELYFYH
T1 sequence (P55210 whole entry, looked up): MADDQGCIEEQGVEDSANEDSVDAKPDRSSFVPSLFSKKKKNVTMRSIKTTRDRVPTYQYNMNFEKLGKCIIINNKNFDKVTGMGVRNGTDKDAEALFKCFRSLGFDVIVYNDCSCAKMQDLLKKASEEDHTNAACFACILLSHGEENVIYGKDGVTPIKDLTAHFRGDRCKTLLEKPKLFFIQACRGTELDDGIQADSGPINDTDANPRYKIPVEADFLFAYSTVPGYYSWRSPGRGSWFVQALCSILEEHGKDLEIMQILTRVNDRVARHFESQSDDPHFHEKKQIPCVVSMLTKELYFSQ

Question: What does the source list for `O=c1[nH]c(=O)n(Cc2ccc(-c3noc(-c4ccc(-c5ccccc5)cc4)n3)cc2)cc1F`?
Answer: fold change (FC) (A549 [1]): 1.5; viability at 5 µM (A549 [2]): 72.7%; Activity (HT-1080 [3]): 0%; Activity (HT-1080 [4]): 24.1%; IC50 (MCF7): 1190 nM; Activity (A549 [5]): 71.8%; IC50 (A549 [6]): 3120 nM; Activity (A549 [7]): 3.26%; Activity (A549 [8]): 9.29%; Activity (A549 [9]): 14.72%; fold change (FC) (HT-1080 [10]): 10; Activity [11]: 3.25%; Activity (HT-1080 [12]): 13.9%; Activity (A549 [13]): 29.01%; fold change (FC) [14]: 3; Activity (A549 [15]): 20.29%; fold change (FC) (HT-1080 [16]): 3.5; Activity [17]: 19.4%; viability at 5 µM (A-375 [18]): 29%; Activity [19]: 2.87%; Activity (HT-1080 [20]): 4.25%; fold change (FC) (A549 [21]): 3; IC50 (MDA-MB-231): 8370 nM; Activity [22]: 68.6%; Activity [23]: 6.64%; viability at 5 µM (A549 [24]): 78%; Activity (HT-1080 [25]): 1.49%; Activity (HT-1080 [26]): 9.56%; IC50 (HT-1080 [27]): 880 nM; viability at 5 µM (HT-1080 [28]): 78.7%; fold change (FC) [29]: 3; Activity (HT-1080 [30]): 16.96%; Activity (A549 [31]): 11.5%; viability at 5 µM (HT-1080 [32]): 84.7%; viability at 10 µM (A-375 [33]): 17%; Activity (A549 [34]): 0.63%; Activity (HT-1080 [35]): 59.9%; Activity (A549 [36]): 1.03%; Activity [37]: 25.8%; Activity (HT-1080 [38]): 13.81%; Activity (A549 [39]): 12%; Activity (HT-1080 [40]): 3.61%; Activity [41]: 9.15%; Activity [42]: 64.3%

Question: Which results are given for `O=c1[nH]c(=O)n(Cc2ccc(-c3noc(-c4ccccc4)n3)cc2)cc1F`?
Answer: viability at 5 µM (A-375 [18]): 56%; viability at 10 µM (A-375 [33]): 30%

Question: What does the source list for `COc1ccc(-c2ccc(-c3nc(-c4ccc(Cn5ncc(=O)[nH]c5=O)cc4)no3)cc2)cc1`?
Answer: viability at 5 µM (A-375 [18]): 76%; viability at 10 µM (A-375 [33]): 44%

Question: Which results are given for `O=c1cnn(Cc2ccc(-c3noc(-c4ccccc4)n3)cc2)c(=O)[nH]1`?
Answer: viability at 5 µM (A-375 [18]): 100%; viability at 10 µM (A-375 [33]): 62%

Question: With `O=c1ccn(Cc2ccc(-c3noc(-c4ccc(-c5ccccc5)cc4)n3)cc2)c(=O)[nH]1` as the compound, how does the viability at 5 µM (A-375 [18]) read?
Answer: 85%

Question: And the viability at 10 µM (A-375 [33])?
Answer: 82%

Question: What does the source list for `COc1ccc(-c2nc(-c3ccc(Cn4cc(F)c(=O)[nH]c4=O)cc3)no2)cc1`?
Answer: viability at 5 µM (A-375 [18]): 50%; viability at 10 µM (A-375 [33]): 82%
